From article PMC11219871, “Epigenetic-based differentiation therapy for Acute Myeloid Leukemia” (Nature Communications, 2024)
“And” between values parts separate entries of the source, which are not always exact repeats. Equal entries are not always repeated.

Key:
ML-2 = assay: Differentiation-apoptosis assay, CD11b / annexin-V / Sytox Green / myeloid markers flow cytometry; format: cell-based, human; design: Cell viability: concentration or dose not given beside the values; CD11b levels: unit not given here; conditions: for CD11b / Cell viability: replicates (Fig 4A)
Procedure: Next, the cells were washed twice with phosphate-buffered saline (PBS) and resuspended in 1X Binding Buffer at a concentration of 1 × 10^6 cells/mL. An 8-µL aliquot of APC-CD11b (BD Pharmingen, Franklin Lakes, NJ, USA) and 1 µL of FITC annexin-V (AV) (BD Pharmingen, Franklin Lakes, NJ, USA) antibodies were added and incubated for 15 min at room temperature in the dark. Finally, after the addition of 400 µL of 1X Binding Buffer to each tube, samples were collected on a BD FACSCanto flow cytometer (Becton Dickinson, San Jose, CA, USA) and analyzed using FlowJo software.
For the rest of experiments, the mix of antibodies (2 µL of BV786-CD13, Cat No, 744748 BD; 1 µL of diluted 1:10 antibody of PB-HLADR, Cat No 307633, Biolegend; 5 µL of APCH7-CD14, Cat No 641394, BD) was added to 10 µL of Brilliant Stain Buffer Plus (Becton Dickinson, San Jose, CA, USA). Then, 1 million cells (volume of 250 µL) were added and incubated for 30 min at room temperature in darkness. After 10 min incubation at room temperature with 2 mL of FACSLysing 1X, cells were centrifuged at 540 g for 5 min and washed twice with FACSBuffer. Finally, after centrifugation at 540 g for 5 min cells were resuspended in FACSBuffer.

MONO-MAC-6 = assay: Cell proliferation assay: GI50; format: cell-based
Procedure: (§1) Cell proliferation was analyzed using the CellTiter 96 Aqueous One Solution Cell Proliferation Assay (Promega, Madison, WI). This is a colorimetric method for determining the number of viable cells in proliferation. For the assay, suspension cells were cultured in triplicate at a density of 1 × 10^6 cells/mL in 96-well plates (100.000 cells/well, 100 µL/well), using only the 60 inner wells to avoid any border effects. After 48 h of treatment with different doses of each compound (0, 0.001, 0.01, 0.1, 0.2, 0.4, 0.6, 0.8, 1, 2, 3, 4, 5 and 10 µM), the plates were centrifuged at 800 g for 10 min followed by removal of the medium. Then, the cells were incubated with 100 μL/well of medium and 20 μL/well of CellTiter 96 Aqueous One Solution reagent for 1–3 h. The absorbance was recorded at 490 and 650 nm as reference wavelengths using 96-well plate readers until the absorbance of the control cells without treatment was approximately 0.8 AU. The background absorbance was measured in wells with only cell line medium and solution reagent. First, the average of the absorbance from the control wells was subtracted from all other absorbance values. Data were calculated as the percentage of total absorbance of treated cells/absorbance of non-treated cells. The GI50 values of the different compounds were determined using non-linear regression plots made with GraphPad Prism v5 software.

OCI-AML3 = assay: Cell proliferation assay: GI50; format: cell-based
Procedure: as §1

UT-7 = assay: Cell proliferation assay: GI50; format: cell-based
Procedure: as §1

M-07e = assay: Cell proliferation assay: GI50; format: cell-based; conditions: replicates 1-3
Procedure: as §1

TF-1 = assay: Cell proliferation assay: GI50; format: cell-based
Procedure: as §1

HEL = assay: Cell proliferation assay: GI50; format: cell-based; conditions: replicates 1-3
Procedure: as §1

NB-4 = assay: Cell proliferation assay: GI50; format: cell-based
Procedure: as §1

GF-D8 = assay: Cell proliferation assay: GI50; format: cell-based
Procedure: as §1

OCI-AML2 = assay: Cell proliferation assay: GI50; format: cell-based
Procedure: as §1

THP-1 = assay: Cell proliferation assay: GI50; format: cell-based
Procedure: as §1

KASUMI-1 = assay: Cell proliferation assay: GI50; format: cell-based
Procedure: as §1

[1] = ML-2, daily treatment, time 0 days, replicates 1-3 (Figure 2B)
[2] = ML-2, daily treatment, time 2 days, replicates 1-3 (Figure 2B)
[3] = ML-2, daily treatment, time 4 days, replicates 1-3 (Figure 2B)
[4] = ML-2, daily treatment, time 6 days, replicates 1-3 (Figure 2B)
[5] = ML-2, daily treatment, time 8 days, replicates 1-3 (Figure 2B)

COc1cc2nc(-c3cc(C)oc3C)cc(NCC3CCN(c4ncc(C(=O)NO)cn4)CC3)c2cc1OC [CM-1758, 2-[4-[[[2-(2,5-dimethyl-3-furyl)-6,7-dimethoxy-4-quinolyl]amino]methyl] -1-piperidyl]pyrimidine-5-carbohydroxamic acid]
percentage of CD11b (ML-2; ML-2, 260 nM CM-444 or 210 nM CM-1758 daily for 4 days, before injection): > 90% | CD11b (%) (ML-2; ML-2, 48 h): 75.6% | CD13 (%) (ML-2; ML-2, 48 h): 98.6% | CD14 (%) (ML-2; ML-2, 48 h): 2.86% | HLA-DR (%) (ML-2; ML-2, 48 h): 17.4% | CD11b (ML-2; ML-2, 48 h): 64.3% and 61.7% and 64.6% | Cell viability (ML-2; ML-2, 48 h): 89.3% and 72.6% and 87.1% | differentiation level (CD11b) (ML-2; ML-2, after 6–8 days of treatment): ~90% | Annexin-V (%) (ML-2; [1]): 0% and 1.81% and 2.3% | CD11b (%) (ML-2; [1]): 9.3% and 9.32% and 7.24% | Annexin-V (%) (ML-2; [2]): 0% and 5.74% and 8.47% | CD11b (%) (ML-2; [2]): 46.98% and 27.2% and 35.8% | Annexin-V (%) (ML-2; [3]): 10.26% and 4.49% and 5.25% | CD11b (%) (ML-2; [3]): 56.51% and 40.8% and 55.87% | Annexin-V (%) (ML-2; [4]): 4.87% and 1.99% and 9.87% | CD11b (%) (ML-2; [4]): 77.98% and 70% and 78.6% | Annexin-V (%) (ML-2; [5]): 5.37% and 6.87% and 10.45% | CD11b (%) (ML-2; [5]): 88.06% and 83.2% and 89.7% | CD11b (%) (ML-2; ML-2 cell line, replicates 1-3 (Figure 2A)): 53.45% and 67.6% and 52.5% | CD11b levels (ML-2; ML-2 treated daily for 48 h, replicates (Fig 6E)): 45.9 and 51.7 and 43.7 | GI50 (MONO-MAC-6; Homo sapiens, MONO-MAC-6, 48 h): 617 nM | GI50 (MONO-MAC-6; Homo sapiens, MONO-MAC-6, MONO-MAC-6, replicates 1-3): 785 nM | GI50 (MONO-MAC-6; MONO-MAC-6, replicates 1-3): 600 nM and 466 nM | GI50 (OCI-AML3; Homo sapiens, OCI-AML-3, OCI-AML3, 48 h): > 10000 nM | GI50 (OCI-AML3; Homo sapiens, OCI-AML-3, OCI-AML3, replicates 1-3): > 10000 nM | GI50 (OCI-AML3; OCI-AML3, replicates 1-3): > 10000 nM | GI50 (UT-7; Homo sapiens, UT7, UT-7, replicates 1-3): 3680 nM | GI50 (UT-7; UT-7, replicates 1-3): 3940 nM and 3670 nM | GI50 (M-07e): 1320 nM and 1990 nM and 1190 nM | GI50 (TF-1; Homo sapiens, TF-1, TF-1, replicates 1-3): 2960 nM | GI50 (TF-1; TF-1, replicates 1-3): 2580 nM and 2690 nM | GI50 (HEL; Homo sapiens): 1880 nM | GI50 (HEL): 1320 nM and 1360 nM | GI50 (NB-4; Homo sapiens, NB-4, 48 h): 857 nM | GI50 (NB-4; Homo sapiens, NB-4, NB-4, replicates 1-3): 987 nM | GI50 (NB-4; NB-4, replicates 1-3): 714 nM and 870 nM | GI50 (GF-D8; 48 h, GF-D8, 48 h): > 10000 nM | GI50 (GF-D8; GF-D8, replicates 1-3): > 10000 nM | GI50 (OCI-AML2; Homo sapiens, OCI-AML2, 48 h): 774 nM | GI50 (OCI-AML2; Homo sapiens, OCI-AML2, OCI-AML2, replicates 1-3): 954 nM | GI50 (OCI-AML2; OCI-AML2, replicates 1-3): 712 nM and 655 nM | GI50 (THP-1; Homo sapiens, THP-1, 48 h): > 10000 nM | GI50 (THP-1; Homo sapiens, THP-1, replicates 1-3): > 10000 nM | GI50 (THP-1; THP-1, replicates 1-3): > 10000 nM | GI50 (KASUMI-1; Homo sapiens, Kasumi 1, 48 h, KASUMI-1, 48 h): 578 nM | GI50 (KASUMI-1; Homo sapiens, Kasumi 1, KASUMI-1, replicates 1-3): 721 nM | GI50 (KASUMI-1; KASUMI-1, replicates 1-3): 635 nM and 379 nM

Cc1[nH]c2ccccc2c1CCNCc1ccc(/C=C/C(=O)NO)cc1 [Panobinostat, reference compound]
CD11b (ML-2; ML-2, 48 h): 36.1% and 27.0% and 28.8% | Cell viability (ML-2; ML-2, 48 h): 69.0% and 63.1% and 66.5%

O=C(CCCCCCC(=O)Nc1ccccc1)NO [Vorinostat, reference compound]
CD11b (ML-2; ML-2, 48 h): 25.0% and 20.7% and 16.1% | Cell viability (ML-2; ML-2, 48 h): 86.1% and 82.9% and 82.7%
